Experimental data from patent publication US20160015064A1, “COMPOUNDS, COMPOSITIONS, AND METHODS FOR MODULATING SWEET TASTE” (CHROMOCELL CORPORATION, priority 2013, published 2016).

Assays:
[1] = system: perception of the sweet taste of an aqueous solution of sweetener; experiment: Ranking sip and spit test of sweetness perception (R index); type: in vivo, humans; conditions: vs negative control
Description: The effect of the test compounds on the perception of the sweet taste of an aqueous solution of sweetener in humans was evaluated using a ranking “sip and spit” method.
(§1) The aqueous sweetener solutions were prepared by adding, fructose, sucrose or glucose (by weight), to water to achieve the desired concentration.
(§2) Compounds were first prepared as a 500-fold concentrated stock solution in 100% ethanol. These concentrated stocks were then added to the aqueous sweetener solutions to result in a final ethanol concentration of 0.2%. The control (positive and negative) samples were also normalized to 0.2% ethanol.
In the ranking test used for compound evaluation, taste panelists (n=15), rank samples in increasing order of sweetness. One set, comprising of 6 samples, was presented to each panelists at a given time and are asked to rank them in order of increasing sweetness.
Panelists were instructed not to eat or drink (except water) for at least 1 h before the test. During the test, panelists were instructed to sip each sample, swirl it around their mouth and then expectorate. After tasting each set, panelists were instructed to rank the 6 samples within the set from least sweet to most sweet. Where rank 1—is lowest in sweetness and rank 6—is highest in sweetness. Panelists cleansed their palates by rinsing with water, eating a cracker and waiting for an interval of 10 minutes. All samples were tasted at ambient temperatures. Each sample was tasted twice.
R index analysis was utilized to determine the degree of difference between a test and control sample. It indicates the level of discrimination between two samples. […] A positive control sample was used to assess the ability of the panelists to accurately discriminate sweetness perception differences from the negative control.

[2] = system: perception of the sweet taste of an aqueous solution of sweetener; experiment: Two-alternative forced choice sip and spit method (2AFC); type: in vivo, humans
Description: The effect of the test compounds on the perception of the sweet taste of an aqueous solution of sweetener in humans was evaluated using a two-alternative forced choice “sip and spit” method (2AFC).
as §1
as §2, with “0.2% ethanol. This level of ethanol was not seen to contribute any perceived sweetness.” for “0.2% ethanol.”
The 2AFC test used for compound evaluation was a blind and randomized test where taste panelists (n=15) evaluate a pair of sweetener solutions at a time—one sample contains aqueous sweetener solution plus compound (i.e. test) while the other contains aqueous sweetener solution at higher concentration without compound (i.e. positive control). Each test sample was compared against a positive control. For example, if the test sample contained 1× sweetener concentration with compound (e.g. 5% sucrose with compound), the positive control sample contained a 1.1× sweetener concentration (e.g. 5.5% sucrose without compound).
Panelists were instructed not to eat or drink (except water) for at least 1 h before the test. During the test, panelists were instructed to sip each sample, swirl it around their mouth and then expectorate. After tasting each sample in the pair, panelists were instructed to record the sample that is “sweeter” in taste. Panelists cleansed their palates by rinsing with water, eating a cracker and waiting for an interval of about 5 minutes. Each pair was tasted twice. All samples were tasted at ambient temperatures. Data were analyzed using binomial probabilities.
Approximate levels of sweetness enhancement in column 5 of Table 2 were calculated as follows:
Approximate levels of sweetness enhancement=Sweetener concentration of positive control surpassed by the test sample, divided by sweetener concentration for compound-containing sample (e.g. 1.15×=5.75% sucrose/5% sucrose).

[3] = test sample 4% fructose, compound 25 ppm with positive 2AFC

SMILES | R Index Score ([1]; 4% fructose test sample, compound 10 ppm) | R Index Score ([1]; 5% sucrose test sample, compound 10 ppm, significant at R index ≧60) | Fold increase in perceived sweetness [2, 3] | Fold increase in perceived sweetness ([2]; test sample 5% sucrose, compound 15, 25 ppm with positive 2AFC) | Fold increase in perceived sweetness ([2]; test sample 6.5% glucose, compound 10, 20, 25 ppm with positive 2AFC) | R Index Score ([1]; 5% sucrose test sample, compound 2.5 ppm) | Fold increase in perceived sweetness ([2]; test sample 5% sucrose, compound 15 ppm with positive 2AFC, positive control surpassed / test sweetener concentration) | Fold increase in perceived sweetness ([2]; test sample 6.5% glucose, compound 25 ppm with positive 2AFC)
COc1ccc(C2CC(=O)c3c(O)cccc3O2)cc1O (single isomer, unassigned) [Compound 2, 5-hydroxy-2-(3-hydroxy-4-methoxyphenyl)chroman-4-one] | 81 | 90 | >1.20X | >1.20X | >1.15X |  |  | 
COc1ccc(C2CC(=O)c3c(O)cccc3O2)cc1O (single isomer, unassigned) [Compound 3, 5-hydroxy-2-(3-hydroxy-4-methoxyphenyl)chroman-4-one] |  |  | >1.25X |  |  | 78 | >1.20X | >1.20X
